The text below walks through data of patent US20230322785A1, “ADENOSINE A2A AND A2B RECEPTOR DUAL ANTAGONISTS FOR IMMUNO-ONCOLOGY” (Merck Sharp & Dohme LLC, priority 2020, published 2023).

Assay [1] addresses T1, human A2A adenosine receptor (Homo sapiens, UniProt P29274).
T1 construct: expressed in transfected cells; host or cells: HEK293 or CHO cells
The assay is described as follows: A2A binding affinity, Method (A): radioligand filtration binding with [3H]SCH58261. As to conditions: membranes of HEK293 or CHO cells expressing the human receptor. From the text:
(§1) Method (A) describes the procedure used to measure A2A binding affinity using radioligand binding. Method (B) describes the procedure used to measure A2A binding affinity using SPA technology. The method used to measure A2B binding affinity is also described below. The method used to determine the A2A IC50 value reported for each compound in the table is indicated next to the reported value. The A2B IC50 value measured using the A2B binding affinity assay is shown in the table next to the compound under the corresponding A2A value.
The A2A receptor affinity binding assay measured the amount of binding of a tritiated ligand with high affinity for the A2A adenosine receptor to membranes made from HEK293 or CHO cells recombinantly expressing the human A2A adenosine receptor, in the presence of varying concentrations of a compound of the invention. The data were generated using either filtration binding or a homogenous scintillation proximity assay (SPA).
Method (A): Measurement of A2A Binding Affinity Using Radioligand Binding
148 µL (5 µg/mL) membranes (Perkin Elmer, Cat. No. RBHA2aM400UA) and 2 µL compounds of the invention to be tested (test compound) were transferred to individual wells of a 96-well polypropylene assay plate and incubated for 15 to 30 min at room temperature. [^3H] SCH58261 ((7-(2-phenylethyl)-5-amino-2-(2-furyl)-pyrazolo-[4,3-e]-1,2,4-triazolo[1,5-c]pyrimidine)) was diluted in assay buffer (50 mM Tris pH 7.4, 10 mM MgCl2, 0.005% Tween20) to a concentration of 4 nM and 50 µL transferred to each well of the assay plate. To define total and non-specific binding, wells containing 1% DMSO and 1 µM ZM241385 (Tocris Bioscience, Cat. No. 1036) respectively, were also included. The assay plate was incubated at room temperature for 60 min with agitation. Using a FilterMate Harvester® (Perkin Elmer), the contents of the assay plate were filtered through a UniFilter-96® PEI coated plate (Perkin Elmer Cat. No. 6005274 or 6005277). Filtering was achieved by aspirating the contents of the assay plate for 5 sec, then washing and aspirating the contents three times with ice-cooled wash buffer (50 mM Tris-HCl pH 7.4, 150 mM NaCl) and allowing the vacuum manifold to dry the plate for 30 sec. The filter plate was incubated for at least 1 h at 55° C. and allowed to dry. The bottom of the filter plate was sealed with backing tape. 40 µL Ultima Gold™ (Perkin Elmer, Cat. No. 6013329) was added to each well of the filter plate and the top of the plate was sealed with TopSeal-A PLUS® clear plate seal (Perkin Elmer, Cat. No. 6050185). The plate was incubated for at least 20 min, and then the amount of radioactivity remaining in each well was determined using a TopCount® (Perkin Elmer) scintillation counter. After normalization to total and non-specific binding, the percent effect at each compound concentration was calculated. The plot of percent effect versus the log of compound concentration was analyzed electronically using a 4-parameter logistic fit based on the Levenberg-Marquardt algorithm to generate IC50 values.

The target in assay [2] is T2, human A2B adenosine receptor (Homo sapiens, UniProt P29275).
T2 construct: purchased Perkin Elmer ES-013-C; host or cells: HEK293 cells
T2 sequence (P29275 1-332): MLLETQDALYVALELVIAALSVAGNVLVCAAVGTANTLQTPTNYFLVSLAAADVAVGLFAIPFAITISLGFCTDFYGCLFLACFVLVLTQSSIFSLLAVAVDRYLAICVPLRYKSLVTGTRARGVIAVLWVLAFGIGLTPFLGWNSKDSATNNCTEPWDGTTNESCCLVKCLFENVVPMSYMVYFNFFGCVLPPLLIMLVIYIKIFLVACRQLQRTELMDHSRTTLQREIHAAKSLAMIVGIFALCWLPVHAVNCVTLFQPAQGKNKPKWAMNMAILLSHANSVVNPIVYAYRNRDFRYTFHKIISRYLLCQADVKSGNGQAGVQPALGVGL
The assay is described as follows: A2B binding affinity, radioligand filtration binding assay. The note with it: membranes of HEK293 cells expressing human A2B.
From the text: as §1
Measurement of A2B Binding Affinity
The reported affinity of the compounds of the invention for the human A2B adenosine receptor was determined experimentally using a radioligand filtration binding assay. This assay measures the amount of binding of a tritiated proprietary A2B receptor antagonist, in the presence and absence of a compound of the invention, to membranes made from HEK293 cells recombinantly expressing the human A2B adenosine receptor (Perkin Elmer, Cat. No. ES-013-C). […] 148 µL (135 µg/mL) membranes and 2 µL test compounds were transferred to individual wells of a 96-well polypropylene assay plate and incubated for 15 to 30 min at room temperature with agitation. Tritiated radioligand was diluted to a concentration of 14 nM in assay buffer (phosphate buffered saline without Magnesium and Calcium, pH 7.4; GE Healthcare Life Sciences, Cat. No. SH30256.01) and then 50 µL of the solution were transferred to each well of the assay plate. To define total and non-specific binding, wells containing 1% DMSO and 20 µM N-ethylcarboxamidoadenosine (Tocris Bioscience, Cat. No. 1691) respectively, were also included. The wells of the assay plate were incubated at room temperature for 60 min with agitation, then filtered using a FilterMate Harvester® (Perkin Elmer) or similar equipment through a UniFilter-96® PEI coated plate (Perkin Elmer Cat. No. 6005274 or 6005277). Filtering was achieved by aspirating the contents of the assay plate for 5 sec, then washing and aspirating the contents three times with ice-cooled wash buffer (assay buffer supplemented with 0.0025% Brij58) and allowing the vacuum manifold to dry the plate for 30 sec. The filter plate was incubated for at least 1 h at 55° C. and allowed to dry. The bottom of the filter plate was then sealed with backing tape. 40 µL Ultima Gold™ (Perkin Elmer, Cat. No. 6013329) was added to each well of the filter plate and the top of the plate was sealed with TopSeal-A PLUS® clear plate seal (Perkin Elmer, Cat. No. 6050185). The plates were then incubated for at least 20 min, and then the amount of radioactivity remaining in each well was determined using a TopCount® (Perkin Elmer) scintillation counter. After normalization to total and non-specific binding, the percent effect at each compound concentration was calculated. The plot of percent effect versus the log of compound concentration was analyzed electronically using a 4-parameter logistic fit based on the Levenberg-Marquardt algorithm to generate IC50 values.

Molecules are shown by their SMILES. pIC50: −log10 of the molar value.

T1 sequence (P29274 whole entry): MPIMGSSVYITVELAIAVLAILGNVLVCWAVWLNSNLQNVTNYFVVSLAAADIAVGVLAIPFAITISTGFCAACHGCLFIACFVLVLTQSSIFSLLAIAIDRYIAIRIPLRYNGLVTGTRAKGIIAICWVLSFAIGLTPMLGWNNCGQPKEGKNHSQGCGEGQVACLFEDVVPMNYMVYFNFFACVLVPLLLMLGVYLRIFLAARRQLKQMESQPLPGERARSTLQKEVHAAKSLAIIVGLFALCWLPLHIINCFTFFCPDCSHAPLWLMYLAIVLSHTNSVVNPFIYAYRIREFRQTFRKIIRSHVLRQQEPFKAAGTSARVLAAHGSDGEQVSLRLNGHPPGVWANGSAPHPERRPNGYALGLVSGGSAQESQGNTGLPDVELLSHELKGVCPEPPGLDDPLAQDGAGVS

Broadly, the pIC50 is −log10 of the IC50, conventionally taken in molar units. Low values mean a high IC50, high ones a low IC50. Turning to `COc1cc(F)cc2c1nc(N)n1nc(CNCc3ccc(C(C)(O)C(F)(F)F)cc3)nc21` (single isomer, unassigned) [Example 11.8B, (R or S)-2-(4-((((5-amino-9-fluoro-7-methoxy-[1,2,4]triazolo[1,5-c]quinazolin-2-yl)methyl)amino)methyl)phenyl)-1,1,1-trifluoropropan-2-ol], the pIC50 was 9.40 in assay [1] and 8.54 in assay [2] (value given with mark (A)).

On to `COc1cc(F)cc2c1nc(N)n1nc(CNCc3ccc(C(C)(C)O)cc3)nc21` [Example 11.4, 2-(4-((((5-amino-9-fluoro-7-methoxy-[1,2,4]triazolo[1,5-c]quinazolin-2-yl)methyl)amino)methyl)phenyl)propan-2-ol], for which the pIC50 in assay [1] is 10.00; in assay [2] (value printed with mark (B)) it was 8.54.

In the case of `COc1cc(F)cc2c1nc(N)n1nc(CNCc3ccc(C(O)(C(F)F)C(F)F)cc3)nc21` [Example 11.6, 2-(4-((((5-amino-9-fluoro-7-methoxy-[1,2,4]triazolo[1,5-c]quinazolin-2-yl)methyl)amino)methyl)phenyl)-1,1,3,3-tetrafluoropropan-2-ol], the pIC50 was 9.52 in assay [1] and 8.43 in assay [2] (value given with mark (A)).

As to `COc1cc(F)cc2c1nc(N)n1nc(CNCc3ccc(C(O)C(F)(F)F)cc3)nc21` (single isomer, unassigned) [Example 11.7A, (S or R)-1-(4-((((5-amino-9-fluoro-7-methoxy-[1,2,4]triazolo[1,5-c]quinazolin-2-yl)methyl)amino)methyl)phenyl)-2,2,2-trifluoroethan-1-ol], the pIC50 was 9.30 in assay [1] and 7.67 in assay [2] (value given with mark (A)).

For the compound `COc1cc(F)cc2c1nc(N)n1nc(CNCc3ccc(C(C)(O)C(F)(F)F)cc3)nc21` (single isomer, unassigned) [Example 11.8A, (S or R)-2-(4-((((5-amino-9-fluoro-7-methoxy-[1,2,4]triazolo[1,5-c]quinazolin-2-yl)methyl)amino)methyl)phenyl)-1,1,1-trifluoropropan-2-ol], the pIC50 in assay [1] is 9.10; in assay [2] (value given with mark (A)), 7.95.

On to `COc1cc(F)cc2c1nc(N)n1nc(CNCc3ccc(S(N)(=O)=O)cc3)nc21` [Example 11.11, 4-((((5-amino-9-fluoro-7-methoxy-[1,2,4]triazolo[1,5-c]quinazolin-2-yl)methyl)amino)methyl)benzenesulfonamide], for which the figures for the pIC50 in assay [1] and in assay [2] (value given with mark (A)) were 8.68 and 7.81, respectively.

For `COc1cccc2c1nc(N)n1nc(CNS(=O)(=O)C3CC3)nc21` [Example 12.2, N-((5-amino-7-methoxy-[1,2,4]triazolo[1,5-c]quinazolin-2-yl)methyl)cyclopropanesulfonamide], the pIC50 in assay [1] was 9.22; in assay [2] (value given with mark (A)), 6.94.

As to `COc1cccc2c1nc(N)n1nc(CNCc3cnn(C)c3)nc21` [Example 11.3, 7-methoxy-2-((((1-methyl-1H-pyrazol-4-yl)methyl)amino)methyl)-[1,2,4]triazolo[1,5-c]quinazolin-5-amine], the pIC50 in assay [1] was 10.00; in assay [2] (value printed with mark (B)), 5.98.

For the compound `COc1cc(F)cc2c1nc(N)n1nc(CNCc3ccc(C(O)C(F)(F)F)cc3)nc21` (single isomer, unassigned) [Example 11.7B, (R or S)-1-(4-((((5-amino-9-fluoro-7-methoxy-[1,2,4]triazolo[1,5-c]quinazolin-2-yl)methyl)amino)methyl)phenyl)-2,2,2-trifluoroethan-1-ol], the values for the pIC50 in assay [1] and in assay [2] (value given with mark (A)) were 9.30 and 7.83, respectively.

`COc1cc(F)cc2c1nc(N)n1nc(CNCc3ccc(C(O)(C(F)(F)F)C(F)(F)F)cc3)nc21` [Example 11.5, 2-(4-((((5-amino-9-fluoro-7-methoxy-[1,2,4]triazolo[1,5-c]quinazolin-2-yl)methyl)amino)methyl)phenyl)-1,1,1,3,3,3-hexafluoropropan-2-ol]: the pIC50 was 9.70 in assay [1] and 9.00 in assay [2] (value given with mark (A)).
